Where two headings read alike, the source gives them in different places.
Tests used:
[1] = Pharmacokinetic investigations on awake cats, intravenous injection of 3H-marked test compounds; type: in vivo, cat; conditions: for distribution volume / elimination constant / excretion in urine: awake cats, i.v., digoxin 30 μg./kg., Cpd. 1 and Cpd. 7 100 μg./kg.; for excretion in urine: urine collected for 14 days; for dosage needed to achieve the same plasma concentration, relative to digoxin: from total clearance
Method: Pharmacokinetic investigations were carried out on awake cats, the test compounds being injected intravenously in the ^3 H-marked form. Over the course of 48 hours, blood samples were taken via an implanted catheter for the determination of the radioactivity in the plasma. The urine was collected for 14 days. The elimination constant was calculated from the decrease of the plasma concentration and the amount excreted in the urine.

in vivo = conditions: cat, in vivo
Method: (§1) The pharmacological action of the new compounds according to the present invention was determined by the comparison of 12-dehydrodigoxin oxime (Compound 1 from) and 12-dehydrodigoxin-o-methyloxime (Compound 7 from) with digoxin, which is a known pharmaceutical for the treatment of cardiac insufficiency, using the following experimental procedure:
(§2) The positive inotropic and cardiotoxic action was tested on cats with pentobarbital-induced heart insufficiency. Increasing dosages were injected at intervals of 10 minutes, so that the total dosage increased in each case by the factor √2. The criterion for the therapeutically relevant, positively inotropic action was the increase of the maximum pressure increase rate by 1.5 or 3.0 mm. Hg/sec (DE1.5 and DE3.0). The quotient from both values is a measure for the steepness of the dosage activity line.
(§3) The measure for the cardiotoxicity was the dosage at which the first disturbances of the induction of stimulation took place. The point of time of the commencement of arrhythmias as ascertained from the electrocardiogram and the related dosage calculated by interpolation. The quotient from this cardiotoxic dosage and the DE1.5 served as a measure for the therapeutic breadth.

[2] = system: cats with pentobarbital-induced heart insufficiency; assay: animal or person; conditions: for ED (1.5 mmHg/sec increase) / ED (3.0 mmHg/sec increase): Felis catus, 10 min; for ED (1.5 mmHg/sec increase): read-out: DE1.5; for ED (3.0 mmHg/sec increase): read-out: DE3.0; for quotient of DE3.0 and DE1.5, steepness of the dosage activity line: cats, fractionated injection
Method: as §1, §2, §3

[3] = humans; cited from earlier work

Compound | distribution volume [1] [kg⁻¹] | elimination constant [1] [h⁻¹] | excretion in urine [1] | dosage needed to achieve the same plasma concentration, relative to digoxin ([1]; cats) | elimination constant compared with digoxin ([1]; in words, cats) | TD50 (in vivo) [mg/kg] | selectivity ratio (in vivo) | ED (1.5 mmHg/sec increase) [2] [mg/kg] | ED (3.0 mmHg/sec increase) [2] [mg/kg] | quotient of DE3.0 and DE1.5, steepness of the dosage activity line [2] | distribution volume compared with digoxin ([1]; in words, cats) | total clearance compared with digoxin ([1]; in words, cats) | dosage activity line compared with digoxin ([2]; in words) | elimination constant [3]
C[C@H]1O[C@@H](O[C@H]2[C@@H](O)C[C@H](O[C@H]3[C@@H](O)C[C@H](O[C@H]4CC[C@@]5(C)[C@H](CC[C@@H]6[C@@H]5CC(=NO)[C@]5(C)[C@@H](C7=CC(=O)OC7)CC[C@]65O)C4)O[C@@H]3C)O[C@@H]2C)C[C@H](O)[C@@H]1O [Compound 1, 12-Dehydrodigoxin oxime] | 2.74 | 0.0258 | 30 % of dose | about 45 % of the dosage of digoxin | even greater | 0.51 | 4.85 | 0.105 | 0.236 | 1.98 |  |  |  | 
CON=C1C[C@H]2[C@@H](CC[C@@H]3C[C@@H](O[C@H]4C[C@H](O)[C@H](O[C@H]5C[C@H](O)[C@H](O[C@H]6C[C@H](O)[C@H](O)[C@@H](C)O6)[C@@H](C)O5)[C@@H](C)O4)CC[C@@]32C)[C@@]2(O)CC[C@H](C3=CC(=O)OC3)[C@@]12C [Compound 7, 12-Dehydrodigoxin--O-methyloxime] | 1.47 | 0.0143 | 31 % of dose | 13 % of the dosage of digoxin | about equally as great as for digoxin | 1.37 | 4.1 | 0.334 | 0.817 | 3.56 | lower distribution volume | lower total clearance | flatter than in the case of digoxin | 
C[C@H]1O[C@@H](O[C@H]2[C@@H](O)C[C@H](O[C@H]3[C@@H](O)C[C@H](O[C@H]4CC[C@@]5(C)[C@H](CC[C@@H]6[C@@H]5C[C@@H](O)[C@]5(C)[C@@H](C7=CC(=O)OC7)CC[C@]65O)C4)O[C@@H]3C)O[C@@H]2C)C[C@H](O)[C@@H]1O [digoxin] | 13.3 | 0.01214 | 42.8 % of dose |  |  | 0.33 | 2.75 | 0.12 | 0.253 | 2.28 |  |  |  | about 0.015 h^-1

Source: patent US4292314A, “Cardioactive 12-dehydrodigoxin-oximes” (Boehringer Mannheim GmbH, priority 1979, dated 1981)
